# Columns and labels:
# Type in all cases: in vivo
# [1] = test system: normally sensitive caterpillars of the diamondback moth (Plutella xylostella); assay: Plutella Test (normally sensitive), cabbage leaf dip
# Excerpt: (§1) The expected action for a given combination of two active compounds can be calculated as follows, using the formula of S. R. Colby, Weeds 15 (1967), 20-22: • If • X is the kill rate, expressed as % of the untreated control, when employing active compound A at an application rate of m g/ha or in a concentration of m ppm, • Y is the kill rate, expressed as % of the untreated control, when employing active compound B at an application rate of n g/ha or in a concentration of n ppm and • E is the kill rate, expressed as % of the untreated control, when employing active compounds A and B at application rates of m and n g/ha or in a concentration of m and n ppm, • then [formula]
# (§2) If the actual insecticidal kill rate exceeds the calculated value, the action of the combination is superadditive, i.e. a synergistic effect is present. In this case, the actually observed kill rate must exceed the value calculated using the above formula for the expected kill rate (E).
# Plutella Test (Normally Sensitive)
# To produce a suitable preparation of active compound, 1 part by weight of active compound is mixed with the stated amounts of solvent and emulsifier, and the concentrate is diluted with emulsifier-containing water to the desired concentration. […]
# After the desired period of time, the kill in % is determined. […] The kill rates determined are calculated using Colby's formula.
# [2] = test system: resistant caterpillars of the diamondback moth (Plutella xylostella); assay: Plutella Test (resistant), cabbage leaf dip
# Excerpt: as §1, §2
# Plutella Test (Resistant)
# To produce a suitable preparation of active compound, 1 part by weight of active compound is mixed with the stated amounts of solvent and emulsifier, and the concentrate is diluted with emulsifier-containing water to the desired concentration.
# Cabbage leaves (Brassica oleracea) are treated by being dipped into the preparation of active compound of the desired concentration and are populated with resistant caterpillars of the diamondback moth (Plutella xylostella) while the leaves are still moist.
# (§3) After the desired period of time, the kill in % is determined. 100% means that all caterpillars have been killed; 0% means that none of the caterpillars have been killed. The kill rates determined are calculated using Colby's formula.
# [3] = test system: caterpillars of the army worm (Spodoptera frugiperda); assay: Spodoptera frugiperda Test, cabbage leaf dip
# Excerpt: as §1, §2
# Spodoptera frugiperda Test
# To produce a suitable preparation of active compound, 1 part by weight of active compound is mixed with the stated amounts of solvent and emulsifier, and the concentrate is diluted with emulsifier-containing water to the desired concentration. Cabbage leaves (Brassica oleracea) are treated by being dipped into the preparation of active compound of the desired concentration and are populated with caterpillars of the army worm (Spodoptera frugiperda) while the leaves are still moist.
# as §3
compound,measurement,setting,value
Cc1cc(C)c(C2=C(OC(=O)CC(C)(C)C)C3(CCCC3)OC2=O)c(C)c1 [Ex. I-b-1],Kill rate in % after 3 d,[1]; 100 ppm,40%
same,Kill rate in % after 7 d,[2]; 100 ppm,35%
same,Kill rate in % after 7 d,[2]; 500 ppm,40%
same,Kill rate in % after 7 d,[3]; 100 ppm,0%
"COC(=O)N(C(=O)N1COC2(C(=O)OC)Cc3cc(Cl)ccc3C2=N1)c1ccc(OC(F)(F)F)cc1 (stereo not drawn) [Indoxacarb, indoxacarb]",Kill rate in % after 3 d,[1]; 0.16 ppm,15%
same,Kill rate in % after 7 d,[2]; 0.16 ppm,90%
"N#Cc1nn(-c2c(Cl)cc(C(F)(F)F)cc2Cl)c(N)c1[S+]([O-])C(F)(F)F (stereo not drawn) [Fipronil, fipronil]",Kill rate in % after 7 d,[2]; 0.032 ppm,40%
same,Kill rate in % after 7 d,[3]; 0.8 ppm,20%
Emamectin-benzoate,Kill rate in % after 7 d,[3]; 0.16 ppm,55%

# Reference: patent US6919090B2, “Active substance combinations with insecticidal and acaricidal properties” (priority 2000, dated 2005)
